# Source: US20210275698A1, “COMPOUNDS AND COMPOSITIONS FOR TARGETING MACROPHAGES AND OTHER MANNOSE-BINDING C-TYPE LECTIN RECEPTOR HIGH EXPRESSING CELLS AND METHODS OF TREATING AND DIAGNOSIS USING SAME” (priority 2015, published 2021)
# Assays:
# [1] = test system: luciferase-expressing M. tuberculosis H37Rv strain (M.tb-Lux); assay: Anti-bacterial activity against M.tb in human macrophages (luminescence); type: cell-based; details: drug equivalency; up to 72 h
# [2] = test system: monocyte-derived CD206+ macrophages; assay: CD206 targeting assay: uptake, killing and apoptosis of monocyte-derived CD206+ macrophages; type: cell-based
SMILES,lowest concentration at which activity against M.tb was maintained [1] [µM],killing / toxicity to CD206 expressing macrophages (Annexin levels) ([2]; FIG. 17),apoptosis induction (Annexin-V expression on MOs and in tumor tissue) ([2]; overnight)
"NNC(=O)c1ccncc1 [INH, isoniazid]",0.0312,–,–
"COc1cccc2c1C(=O)c1c(O)c3c(c(O)c1C2=O)C[C@@](O)(C(=O)CO)C[C@@H]3O[C@H]1C[C@H](N)[C@H](O)[C@H](C)O1 [Docorubicin, doxorubicin]",–,no toxicity,less effect
